We go through twelve compounds from PubChem BioAssay (NCI).

Test systems include EKVX NSCLC; NCI-H226 lung; NCI-H460 lung; SNB-75 CNS; SNB-19 CNS; HCT-116 colon; RPMI-8226 leukemia; SK-MEL-28 melanoma; KM12 colon; SF-539 CNS.
Holding throughout (assay): NCI-60 cell line screen, 48 h

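Where inhibition never reached the appropriate level, the endpoint shown equals the highest concentration tested. Otherwise, values were interpolated linearly from a five-concentration, 48-hour dose response in 96-well plates. TGI: total growth inhibition.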

Consider `O=C(Nc1cccc2c1[nH]c1c(-c3ccccc3)nccc12)c1ccccc1[N+](=O)[O-]`, for which the TGI in the test on EKVX NSCLC is more than 100 µM; with NCI-H226 lung, 9.7 µM; in the test with NCI-H460 lung, 78.1 µM; in the test with SNB-75 CNS it was more than 100 µM; with SNB-19 CNS it was more than 100 µM; in the test with HCT-116 colon, more than 100 µM. In addition, the TGI is more than 100 µM with RPMI-8226 leukemia, more than 100 µM in the test with SK-MEL-28 melanoma, more than 100 µM in the test on KM12 colon and 97 µM in the test with SF-539 CNS.

For the compound `COc1ccc2nc3ccc(OC)cc3c(SCc3ccccc3)c2c1`, the TGI in the test on EKVX NSCLC, in the test on NCI-H226 lung, with NCI-H460 lung, with SNB-75 CNS, in the test on SNB-19 CNS and in the test with HCT-116 colon was more than 100 µM throughout. In addition, the TGI in the test on RPMI-8226 leukemia, in the test on SK-MEL-28 melanoma, in the test on KM12 colon and with SF-539 CNS was more than 100 µM throughout.

On to `COC(=O)C1=C(C)C=C(N2CCOCC2)C(C(=O)OC)C1c1ccccc1` (stereo not given), for which the TGI with EKVX NSCLC, with NCI-H226 lung, in the test with NCI-H460 lung, in the test on SNB-75 CNS, in the test with SNB-19 CNS and in the test on HCT-116 colon was more than 10 µM in each case. Also, the TGI in the test with RPMI-8226 leukemia, in the test with SK-MEL-28 melanoma, with KM12 colon and with SF-539 CNS was more than 10 µM in each case.

`CCOc1cc2oc(C)cc(=O)c2c(OC)c1C=Nc1ccc(Cn2c(C)nc3ccccc32)cc1`: the TGI in the test with EKVX NSCLC, with NCI-H226 lung, in the test on NCI-H460 lung, in the test with SNB-75 CNS, in the test on SNB-19 CNS and in the test with HCT-116 colon was more than 100 µM each time. The TGI with RPMI-8226 leukemia, with SK-MEL-28 melanoma, with KM12 colon and with SF-539 CNS was more than 100 µM throughout.

`CC1C(OC2O[C@@H]3O[C@@]4(C)CC[C@H]5[C@H](C)CC[C@@H](C2C)[C@@]35O4)O[C@@H]2O[C@@]3(C)CC[C@H]4[C@H](C)CC[C@@H]1[C@@]24O3` (stereo not given in full): the TGI in the test on EKVX NSCLC, with NCI-H226 lung, in the test with NCI-H460 lung, in the test with SNB-75 CNS, with SNB-19 CNS and in the test on HCT-116 colon was more than 50 µM each time. The TGI in the test with RPMI-8226 leukemia, with SK-MEL-28 melanoma, in the test with KM12 colon and in the test on SF-539 CNS was more than 50 µM in each case.

For the compound `CCOC(=O)C(NC(=O)c1ccccc1)(Nc1ccc(Cl)cc1C(F)(F)F)C(F)(F)F` (stereo not given), the TGI in the test with EKVX NSCLC is more than 100 µM; in the test with NCI-H226 lung, more than 100 µM; with NCI-H460 lung, more than 52.3 µM; with SNB-75 CNS, 15.1 µM; with SNB-19 CNS it was more than 100 µM; in the test with HCT-116 colon, more than 84.5 µM. Besides, the TGI in the test on RPMI-8226 leukemia is more than 100 µM; in the test with SK-MEL-28 melanoma, more than 100 µM; in the test with KM12 colon, 5.17 µM; in the test with SF-539 CNS, more than 88.6 µM.

For `CCN(CC)CCNc1ccc2nnn3c4ccc(O)cc4c(=O)c1c23`, the TGI with EKVX NSCLC came out at 21.5 µM; in the test with NCI-H226 lung it was 14.7 µM; with NCI-H460 lung, 4.64 µM; in the test on SNB-75 CNS it was 14.1 µM; in the test with SNB-19 CNS it was 22.2 µM; with HCT-116 colon it was 15.6 µM. Besides, the TGI in the test on RPMI-8226 leukemia came out at 19.8 µM; in the test on SK-MEL-28 melanoma, 24.2 µM; with KM12 colon it was 12.8 µM; with SF-539 CNS, 18.4 µM.

Take `CCOC(=O)C(C(=S)SC)c1nn2c(=O)cc(C)nc2s1` (stereo not given): the TGI in the test on EKVX NSCLC is 34.3 µM; in the test on NCI-H226 lung, 34.6 µM; in the test on NCI-H460 lung it was 35.6 µM; in the test with SNB-75 CNS, 41.3 µM; in the test on SNB-19 CNS it was 43.7 µM; in the test with HCT-116 colon, 34.3 µM. Further, the TGI in the test with RPMI-8226 leukemia stood at 48.7 µM; in the test on SK-MEL-28 melanoma it was 34.8 µM; with KM12 colon, 65.3 µM; in the test with SF-539 CNS it was 36 µM.

`OCCOc1ccccc2cccc1-2`: the TGI in the test with EKVX NSCLC, with NCI-H226 lung, with NCI-H460 lung, in the test with SNB-75 CNS, in the test on SNB-19 CNS and in the test on HCT-116 colon was more than 100 µM in each case. Besides, the TGI in the test on RPMI-8226 leukemia, in the test on SK-MEL-28 melanoma, in the test with KM12 colon and in the test with SF-539 CNS was more than 100 µM throughout.

On to `CCOC(=O)C(=O)/C(=C/N1C(=O)CC(=O)NC1=S)C(=O)OCC`, for which the TGI with EKVX NSCLC, in the test on NCI-H226 lung, in the test on NCI-H460 lung, in the test with SNB-75 CNS, with SNB-19 CNS and in the test on HCT-116 colon was more than 100 µM each time. The TGI in the test with RPMI-8226 leukemia, with SK-MEL-28 melanoma, with KM12 colon and in the test with SF-539 CNS was more than 100 µM each time.

Regarding `CSc1nc2c(ncn2C2OCC(O)C(O)C2O)c(=O)n1C` (stereo not given), the TGI with EKVX NSCLC, in the test with NCI-H226 lung, in the test on NCI-H460 lung, with SNB-75 CNS, in the test with SNB-19 CNS and with HCT-116 colon was more than 100 µM throughout. The TGI in the test with RPMI-8226 leukemia, in the test with SK-MEL-28 melanoma, in the test on KM12 colon and in the test on SF-539 CNS was more than 100 µM throughout.

On to `CCOC(=O)c1c2c(c(O)c3ccccc3c(O)n(Cc3ccccc3)c1C)C(=O)C=CC2=O`, for which the TGI with EKVX NSCLC, with NCI-H226 lung, in the test with NCI-H460 lung, with SNB-75 CNS, in the test on SNB-19 CNS and in the test on HCT-116 colon was more than 100 µM each time. In addition, the TGI in the test with RPMI-8226 leukemia, in the test with SK-MEL-28 melanoma, with KM12 colon and in the test with SF-539 CNS was more than 100 µM throughout.
